# Experimental data from US5766871A, “Screening and characterization of glutaryl-7-aminocephalosporanic acid acylase” (priority 1996, dated 1998).
# What was measured:
# [1] = target: T1, GL-7-ACA acylase of P. nitroreducens ATCC 33634 (Pseudomonas nitroreducens, UniProt E0D5C2); assay: Effect of various inhibitors on the acylase activity; type: biochemical
# T1 construct: periplasmic
# T1 sequence (E0D5C2 24-556): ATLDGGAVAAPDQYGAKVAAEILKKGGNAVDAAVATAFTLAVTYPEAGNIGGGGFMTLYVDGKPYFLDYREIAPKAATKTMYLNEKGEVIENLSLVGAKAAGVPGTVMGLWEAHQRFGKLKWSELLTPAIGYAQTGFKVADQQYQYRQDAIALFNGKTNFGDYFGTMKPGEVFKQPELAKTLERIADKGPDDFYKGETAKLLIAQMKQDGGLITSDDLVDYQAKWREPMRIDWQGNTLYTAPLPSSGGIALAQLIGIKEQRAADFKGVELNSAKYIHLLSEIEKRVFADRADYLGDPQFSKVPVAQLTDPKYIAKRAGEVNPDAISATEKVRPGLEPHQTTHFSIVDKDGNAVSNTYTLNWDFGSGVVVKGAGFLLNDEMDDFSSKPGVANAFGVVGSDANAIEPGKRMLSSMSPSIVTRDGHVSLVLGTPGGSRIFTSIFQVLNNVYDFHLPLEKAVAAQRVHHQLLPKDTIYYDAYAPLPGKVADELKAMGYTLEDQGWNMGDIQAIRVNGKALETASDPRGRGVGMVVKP
# T1 sequence (E0D5C2 25-556 partner): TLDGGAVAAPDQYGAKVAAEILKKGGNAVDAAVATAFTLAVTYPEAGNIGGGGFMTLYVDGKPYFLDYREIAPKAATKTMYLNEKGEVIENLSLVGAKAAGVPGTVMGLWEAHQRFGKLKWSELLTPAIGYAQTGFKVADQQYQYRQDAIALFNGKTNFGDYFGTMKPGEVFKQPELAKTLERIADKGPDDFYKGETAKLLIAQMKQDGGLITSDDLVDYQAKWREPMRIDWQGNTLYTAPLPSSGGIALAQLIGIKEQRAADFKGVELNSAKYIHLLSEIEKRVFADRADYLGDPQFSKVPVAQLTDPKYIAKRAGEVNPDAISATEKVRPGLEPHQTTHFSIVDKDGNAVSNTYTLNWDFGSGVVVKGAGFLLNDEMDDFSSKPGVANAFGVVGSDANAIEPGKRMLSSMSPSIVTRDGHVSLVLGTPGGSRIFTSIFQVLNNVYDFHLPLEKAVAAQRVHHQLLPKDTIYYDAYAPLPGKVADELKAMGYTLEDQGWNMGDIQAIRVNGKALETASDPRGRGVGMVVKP
# Procedure: It has been reported that the activity of GL-7-ACA acylases can be inhibited by their own products, e.g., 7-ACA and glutaric acid. Thus, the inhibitory effects of various compounds on the present acylase were tested (Table 4). The compounds were 7-ACA, glutaric acid, glutamate, succinyl-7-ACA, and Ceph C, all of which were used at 20 mM.
# [2] = target: T1, GL-7-ACA acylase of P. nitroreducens ATCC 33634; assay: Substrate profile of GL-7-ACA acylase, whole cells of ATCC 33634; type: biochemical; settings: for activity as substrate, in words: cells of ATCC 33634, compared with GL-7-ACA; for relative activity (percentage relative to the activity for GL7-ACA): whole cells of ATCC 33634, 0.2 g/l substrate, 37° C., 3 hr
# Procedure: (§1) Colonies forming clear zones were cultivated in Nutrient Broth (Difco, Detroit, Mich.) and tested for GL-7-ACA acylase activity as described by Shibuya et al. (Agric. Biol. Chem. 45: 1561-1567, 1981). The whole-cell suspension of ATCC 33634 in 100 mM acetate buffer (pH 5.0) was used as the acylase source. One unit of the acylase activity was defined as the amount of enzyme that liberates 1 μmole of […] per min.
# Cells of ATCC 33634 were used to convert GL-7-ACA and related compounds (Table 2). GL-7-ACA, GL-7-ADCA, and succinyl-7-ACA were prepared according to the method of Shibuya et al. (Agric. Biol. Chem. 45: 1561-1567, 1981).
# ^a The relative GL7-ACA acylase activity was presented as percentage
# relative to the activity for GL7-ACA. Whole cells of ATCC 33634 were
# incubated with 0.2 g/l of GL7-ACA, GL7-ADCA, succinyl 7ACA, or Ceph C at […]
# [3] = tested on: P. nitroreducens ATCC 33634; assay: Effect of composition of media on production of GL-7-ACA acylase; type: cell-based, Pseudomonas nitroreducens
# Procedure: as §1
# To obtain the optimal medium for P. nitroreducens ATCC 33634 cultivation, various media were tested according to the report of Nikolov and Danielsson (Enzyme Microbiol. Technol. 16: 1031-1036, 1994) (Table 1). The cultivation was carried out in 500 ml flasks containing 100 ml of media (Table 1) at 30° C. and 150 rpm for 24 hr. All media were adjusted to pH 7.5 before autoclaving. Yeast extract, casein, peptone, and meat extract were purchased from Difco Laboratories Inc. (Detroit, Mich.).
Structure (SMILES),"activity as substrate, in words [2]",relative activity (percentage relative to the activity for GL7-ACA) [2],also measured
"CC(=O)OCC1=C(C(=O)O)N2C(=O)[C@@H](N)[C@H]2SC1 [7-ACA, 7-Aminocephalosporanic acid]",–,–,"inhibitory effect, in words ([1]; compounds used at 20 mM): strongest inhibitory effects"
"CC(=O)OCC1=C(C(=O)O)N2C(=O)[C@@H](NC(=O)CCC[C@@H](N)C(=O)O)[C@H]2SC1 [Ceph C, cephalosporin C]",No activity was detected,not detected,–
"CC(=O)OCC1=C(C(=O)O)N2C(=O)[C@@H](NC(=O)CCCC(=O)O)[C@H]2SC1 [GL-7-ACA, glutaryl-7-aminocephalo-sporanic acid]",–,100%,–
"CC1=C(C(=O)O)N2C(=O)[C@@H](NC(=O)CCCC(=O)O)[C@H]2SC1 [GL-7-ADCA, glutaryl-desacetoxy-7-aminocephalosporanic acid]",nearly three times more activity,294%,–
"N[C@@H](CCC(=O)O)C(=O)O [Glutamate, glutamate]",–,–,Relative activity (%) of acylase with inhibitor [1]: < 1%
"O=C(O)CCCC(=O)O [Glutaric acid, glutaric acid]",–,–,inhibition of the enzyme activity ([3]; glutaric acid at 0.12%): up to 50%; induction of GL-7-ACA acylase activity ([3]; in ATCC 33634): did not induce; lowest concentration that inhibited the acylase activity ([3]; in ATCC 33634): 0.02%
"CC(=O)OCC1=C(C(=O)O)N2C(=O)[C@@H](NC(=O)CCC(=O)O)[C@H]2SC1 [Succinyl-7ACA, succinyl-7-ACA]",No activity was detected,not detected,–
